Test results published in article PMC5870190, “A three-in-one-bullet for oesophageal cancer: replication fork collapse, spindle attachment failure and enhanced radiosensitivity generated by a ruthenium(II) metallo-intercalator” (Chemical Science, 2017).

Key:
[1] = test system: OE21 human oesophageal squamous cell carcinoma; assay: MTT assay, OE21 cells; format: cell-based; settings: for IC50: MTT
Method: (§1) MTT assay. OE21, FLO-1 or hSAEC1-KT cells were seeded in 96 well plates at 20,000 cells/well (for 24 h treatment) or 10,000 cells/well (for 72 h treatment) and allowed to adhere for 24 h before treatment. OE33 cells were seeded in 48 well plates at 40,000 cells/well (24 h treatment) or 20,000 cells/well (72 h treatment). Cancer cell lines were treated with chemicals dissolved in RPMI media for consistency. After incubation, 0.5 mg/ml MTT (thiazolyl blue tetrazolium bromide) dissolved in serum-free medium was added for 60 minutes and the formazan product eluted using acidified isopropanol.
(§2) The absorbance at 540 nm was quantified by plate reader (reference wavelength 650 nm). The metabolic activity of the cell population was determined as a percentage of a negative (solvent) control. […]
(§3) For the determination of mutation induction, from the untreated and each treated condition, 2x10^5 cells were plated in 10 x 100 mm dishes in selective media (regular media

[2] = test system: FLO-1 human oesophageal adenocarcinoma; assay: MTT assay, FLO-1 cells; format: cell-based
Method: as §1, §2, §3

[3] = test system: OE33 human oesophageal adenocarcinoma; assay: MTT assay, OE33 cells; format: cell-based
Method: as §1, §2, §3

[4] = test system: OE21, OE33 or FLO-1 cells; assay: Clonogenic survival assay with IR, three oesophageal cancer cell lines; format: cell-based, human; settings: Ru1 2 μM or sub-cytotoxic cisplatin (500 nM OE21 and OE33, 300 nM FLO-1), 24 h before IR; range over three cell lines
Method: (§4) Clonogenic survival assay. OE21, OE33 or FLO1 cells were treated with 2 µM Ru1 for 24 h before irradiation with 0-8 Gy using a 137Cs γ-irradiator (IBL637, CIS Bio Int.; dose rate = 0.809 Gy min−1). 1 h after irradiation, cells were detached using Trypsin and re-seeded in 6 well plates at a density of 300 – 20,000 cells/well in triplicate in an incrementally greater number of cells with increasing IR dose to ensure adequate colony formation. Cells were incubated for 7–14 days after re-seeding to allow colony formation before being fixed with 10% methanol, 10% acetic acid and stained with 0.4% methylene blue. OE33 cells required an additional formaldehyde fixation (4% in PBS, 5 mins) step before the addition of methylene blue solution or colony detachment occurred. Colonies containing 50 cells or greater were counted using a Gelcount instrument and accompanying software (Oxford Optronix). Plating efficiencies were determined for each treatment condition and normalised to an untreated control to provide the surviving fraction (S. F.). S.F. versus radiation dose curves were plotted in GraphPad Prism and fit using a second order polynomial function (R2 values > 0.99). Dose modifying factors (DMF) at a SF=0.1 were calculated using the equation: Dose modifying factor (DMF) = IR dose to give S.F. 0.1/IR dose plus compound to give S.F.0.1. […]

OE33 cells = assay: Clonogenic survival assay with IR, OE33; format: cell-based, human; settings: Ru1 2 μM or Cis 500 nM for 24 h before IR
Method: as §4

OE21 cells [5] = assay: Clonogenic survival assay with IR, OE21; format: cell-based, human; settings: Ru1 2 μM or Cis 500 nM for 24 h before IR
Method: as §4

FLO-1 cells = assay: Clonogenic survival assay with IR, FLO-1; format: cell-based, human; settings: Ru1 2 μM or Cis 300 nM for 24 h before IR
Method: as §4

[6] = test system: hSAEC1-KT normal human small airway epithelial cells; assay: MTT assay, hSAEC1-KT cells; format: cell-based
Method: as §1, §2, §3

OE21 cells [7] = assay: DNA fibre assay (replication fork progression); format: cell-based, human
Method: DNA fibre assay. The DNA fibre assay was performed as described previously.5 Briefly, OE21 cells were labelled with 30 µM CldU for 30 mins and then 250 µM IdU for an additional 30 mins. Either Ru1 (21 µM) or dppz (7 µM) was added during the second (IdU) nucleotide step (30 mins). DNA replication was terminated using ice-cold PBS and cells lysed (200 mM Tris-HCl pH 7.4, 50 mM EDTA and 0.5% SDS). DNA fibres were spread onto glass slides, fixed with methanol:acetic acid (3:1) and denatured with 2.5 M HCl. After blocking with 2% BSA, fibres were stained with anti-rat and anti-mouse 5-bromo-2′- deoxyuridine (BrdU) that specifically recognise either CldU (Abcam, dilution 1:500) or IdU (BD Sciences, 1:100). Anti-rat Cy3 (Jackson Immuno Research, 1:300) and anti-mouse Alexa-488 (Molecular Probes, 1:300) were used as the respective secondary antibodies. CldU- and IdU-labelled tracts were visualised using a Leica DMRB microscope with a DFC360FX camera and tract length measured by ImageJ software. Statistical analysis was performed by GraphPad Prism software using an unpaired t-test.
Western blotting. Treated samples were washed with cold PBS and lysed in RIPA (radioimmunoprecipitation assay) buffer containing protease inhibitors (10 μg/mL leupeptin, 2 μg/mL pepstatin, 50 μg/mL antipain, 2 μg/mL aprotinin, 20 μg/mL chyprostatin, 2 μg/mL benzamidine, 1 mM phenylmethanesulfonyl fluoride) and phosphatase inhibitors (50 mM NaF, 1 mM […]
Bis-Tris gels and LDS-PAGE. Gels were transferred onto nitrocellulose membrane and probed with primary antibodies in 5% BSA (bovine serum albumin) solutions at the following dilutions: 1/1000 dilution for majority of Cell Signaling antibodies and γH2AX. 1/500 for anti-p-ATR and anti-cleaved caspase 3. 1/200 anti-Chk1. 1/5000-1/10,000 anti- α-tubulin or β-actin.
(§5) Reactions were visualised with a suitable secondary antibody conjugated with horseradish peroxidase (1/5000 dilution, Thermo). […]

OE21 cells [8] = assay: Cell-cycle analysis by flow cytometry; format: cell-based, human; settings: OE21, 7 μM, 24 h
Method: (§6) phototoxic contribution to bio-activity. Doxorubicin (Sigma) was prepared in doubly-distilled water (10 mg/mL, 17.4 mM).
[Ru(phen)2(dppz)]2+ (2 mM) was prepared in doubly-distilled water.
Sub-cellular fractionation. OE21 or OE33 cells were treated in 12 well plates, washed with cold PBS (2x2 mls) and nuclear and cytosol fractions obtained using the Nuclei EZ Lysis kit (Sigma). Briefly, cells were washed with acidified PBS (pH 2.5) to remove the membrane-bound fraction and 0.4 ml EZ lysis buffer was added. Cells were detached by scraping, collected into eppendorfs, vortexed briefly and left for 5 minutes on ice. Samples were centrifuged (500g, 5 mins) and the supernatant (cytosol fraction) aspirated. The pellet (nuclear fraction) was re-suspended in 200 µl RIPA buffer. […] Ruthenium content was determined by ICP-MS analysis as described in a recent […]
DNA fibre assay. […] CldU- and IdU-labelled tracts were visualised using a Leica DMRB microscope with a DFC360FX camera and tract length measured by ImageJ software. […]
Western blotting. […] Protein content was determined by BCA assay. […]
AnnexinV staining. […] This was incubated for 15 mins at room temperature, 400 µl binding buffer added and analysed by flow cytometry (FL1 and FL3 channels for FITC and PI respectively). […]

OE21 cells [9] = assay: Western blotting of DNA damage response (DDR) markers; format: cell-based, human; settings: OE21, 24 h treatment
Method: as §6
[Ru(phen)2(dppz)]2+ (2 mM) was prepared in doubly-distilled water. […]
Western blotting. Treated samples were washed with cold PBS and lysed in RIPA (radioimmunoprecipitation assay) buffer containing protease inhibitors (10 μg/mL leupeptin, 2 μg/mL pepstatin, 50 μg/mL antipain, 2 μg/mL aprotinin, 20 μg/mL chyprostatin, 2 μg/mL benzamidine, 1 mM phenylmethanesulfonyl fluoride) and phosphatase inhibitors (50 mM NaF, 1 mM Na3VO4 and 20 mM β-glycerophosphate). Protein content was determined by BCA assay. Aliquots of cell lysates (10-50 μg total protein) were prepared in standard Laemmli buffer, heated at 95 °C for 5 minutes and resolved by NuPAGE® 4–12% Bis-Tris gels and LDS-PAGE. Gels were transferred onto nitrocellulose membrane and probed with primary antibodies in 5% BSA (bovine serum albumin) solutions at the following dilutions: 1/1000 dilution for majority of Cell Signaling antibodies and γH2AX. 1/500 for anti-p-ATR and anti-cleaved caspase 3. 1/200 anti-Chk1. 1/5000-1/10,000 anti- α-tubulin or β-actin.
as §5

[10] = cited from earlier work

Q: For `COc1cccc2c1C(=O)c1c(O)c3c(c(O)c1C2=O)C[C@@](O)(C(=O)CO)C[C@@H]3O[C@H]1C[C@H](N)[C@H](O)[C@H](C)O1` [DOX, doxorubicin], which “reduction in potency towards OE21 cells compared to OE33 or FLO-1 cells” value ([1]; 72 h exposure) is on record?
A: three-fold

Q: And the IC50 ([1]; Homo sapiens, Table S2, OE21, 24 h constant incubation)?
A: 4.2 ± 0.3 µM

Q: And the IC50 ([1]; Homo sapiens, Table S2, OE21, 72 h constant incubation)?
A: 0.21 ± 0.07 µM

Q: What about the IC50 ([2]; Homo sapiens, FLO-1, Table S2, FLO1, 24 h constant incubation) of the same compound?
A: 6.1 ± 1.9 µM

Q: And the IC50 ([2]; Homo sapiens, FLO-1, Table S2, FLO1, 72 h constant incubation)?
A: 0.05 ± 0.02 µM

Q: What about the IC50 ([3]; Homo sapiens, Table S2, OE33, 24 h constant incubation) of the same compound?
A: 8.1 ± 2.7 µM

Q: What about the IC50 ([3]; Homo sapiens, Table S2, OE33, 72 h constant incubation) of the same compound?
A: 0.07 ± 0.03 µM

Q: Which “dose modification factor (DMF) at surviving fraction of 0.1” value [4] does the source give for `N.N.[Cl][Pt][Cl]` [Cisplatin, cisplatin] here?
A: 1.05–1.44

Q: And the IC50 ([1]; OE21, 24 h constant exposure)?
A: 22.6 ± 3.6 µM

Q: And the IC50 ([1]; OE21, 72 h constant exposure)?
A: 6.3 ± 0.6 µM

Q: What about the IC50 ([2]; FLO1, 24 h constant exposure) of the same compound?
A: 26.5 ± 0.7 µM

Q: And the IC50 ([2]; FLO1, 72 h constant exposure)?
A: 4.7 ± 0.7 µM

Q: What about the S.F. (OE33 cells; OE33, IR 0 Gy) of the same compound?
A: 0.993

Q: What about the S.F. (OE33 cells; OE33, IR 2 Gy) of the same compound?
A: 0.280

Q: What about the S.F. (OE33 cells; OE33, IR 4 Gy) of the same compound?
A: 0.077

Q: What about the S.F. (OE33 cells; OE33, IR 6 Gy) of the same compound?
A: 0.022

Q: And the S.F. (OE33 cells; OE33, IR 8 Gy)?
A: 0.005

Q: What about the S.F. (OE21 cells [5]; OE21, IR 0 Gy) of the same compound?
A: 1.000

Q: And the S.F. (OE21 cells [5]; OE21, IR 2 Gy)?
A: 0.587

Q: And the S.F. (OE21 cells [5]; OE21, IR 4 Gy)?
A: 0.320

Q: And the S.F. (OE21 cells [5]; OE21, IR 6 Gy)?
A: 0.159

Q: And the S.F. (OE21 cells [5]; OE21, IR 8 Gy)?
A: 0.049

Q: What about the IC50 ([3]; OE33, 24 h constant exposure) of the same compound?
A: 11 ± 1.4 µM

Q: And the IC50 ([3]; OE33, 72 h constant exposure)?
A: 3.25 ± 1 µM

Q: What about the S.F. (FLO-1 cells; FLO-1, IR 0 Gy) of the same compound?
A: 0.929

Q: And the S.F. (FLO-1 cells; FLO-1, IR 2 Gy)?
A: 0.340

Q: And the S.F. (FLO-1 cells; FLO-1, IR 4 Gy)?
A: 0.080

Q: And the S.F. (FLO-1 cells; FLO-1, IR 6 Gy)?
A: 0.007

Q: What about the IC50 ([6]; 24 h constant exposure) of the same compound?
A: 21.5 ± 5 µM

Q: What about the IC50 ([6]; 72 h constant exposure) of the same compound?
A: 15.8 ± 2 µM

Q: With `c1ccc2nc3c4cccnc4c4ncccc4c3nc2c1` [dppz, dipyridophenazine] as the compound, how does the IC50 ([1]; Homo sapiens, OE21, 24 h constant exposure) read?
A: 6.5 ± 2.1 µM

Q: And the IC50 ([1]; Homo sapiens, OE21, 72 h constant exposure)?
A: 3.3 ± 0.4 µM

Q: And the IC50 ([2]; Homo sapiens, FLO-1, FLO1, 24 h constant exposure)?
A: 7.5 ± 0.8 µM

Q: And the IC50 ([2]; Homo sapiens, FLO-1, FLO1, 72 h constant exposure)?
A: 1.9 ± 1.1 µM

Q: What about the “increase in completely stalled/terminated replication forks (CldU tract only) compared to mock-treated” value (OE21 cells [7]; Ru1 21 μM or dppz 7 μM during second (IdU) pulse, 30 min) of the same compound?
A: three-fold

Q: What about the “greater levels of stalled forks than Ru1” value (OE21 cells [7]; dppz 7 μM vs Ru1 21 μM) of the same compound?
A: two-fold

Q: What about the IC50 ([3]; Homo sapiens, OE33, 24 h constant exposure) of the same compound?
A: 6.6 ± 2 µM

Q: What about the IC50 ([3]; Homo sapiens, OE33, 72 h constant exposure) of the same compound?
A: 5.7 ± 0.9 µM

Q: What about the IC50 ([6]; Homo sapiens, Epithelial cell, 24 h constant exposure) of the same compound?
A: > 10 µM

Q: And the IC50 ([6]; Homo sapiens, Epithelial cell, 72 h constant exposure)?
A: > 10 µM

Q: What about the cell-cycle response (OE21 cells [8]) of the same compound?
A: cells accumulated in G1 or early S phase

Q: Which “DDR activation (γH2AX immunoblotting)” value (OE21 cells [9]) does the source give for [Ru(phen)2(dppz)]^2+ here?
A: no evidence of DDR activation

Q: And the IC50 ([1]; OE21, 24 h constant exposure)?
A: > 100 µM

Q: And the IC50 ([1]; OE21, 72 h constant exposure)?
A: > 100 µM

Q: What about the “log P” value [10] of the same compound?
A: –1.48

Q: And the IC50 ([2]; FLO1, 24 h constant exposure)?
A: > 100 µM

Q: What about the IC50 ([2]; FLO1, 72 h constant exposure) of the same compound?
A: 34 ± 5.7 µM

Q: And the IC50 ([3]; OE33, 24 h constant exposure)?
A: > 100 µM

Q: What about the IC50 ([3]; OE33, 72 h constant exposure) of the same compound?
A: > 100 µM
